Numbers after ± are expanded uncertainties.
Settings: Brillouin light scattering

Structure (SMILES): CC(C)CC(C)(C)C [2,2,4-trimethylpentane]
- speed of sound (294.06 K, 100 kPa, Liquid): 1099.7 ± 14 m/s
- speed of sound (294.37 K, 3000 kPa, Liquid): 1127.4 ± 15 m/s
- speed of sound (294.65 K, 6000 kPa, Liquid): 1147.6 ± 15 m/s
- speed of sound (294.84 K, 10000 kPa, Liquid): 1176.1 ± 15 m/s
- speed of sound (294.97 K, 12000 kPa, Liquid): 1181.7 ± 15 m/s
- speed of sound (304.03 K, 100 kPa, Liquid): 1058.5 ± 14 m/s
- speed of sound (304.16 K, 3000 kPa, Liquid): 1088.2 ± 14 m/s
- speed of sound (304.23 K, 6000 kPa, Liquid): 1109.6 ± 14 m/s
- speed of sound (304.27 K, 10000 kPa, Liquid): 1136.9 ± 15 m/s
- speed of sound (304.27 K, 12000 kPa, Liquid): 1147.7 ± 15 m/s
- speed of sound (313.81 K, 100 kPa, Liquid): 1017.3 ± 13 m/s
- speed of sound (313.82 K, 10000 kPa, Liquid): 1100.1 ± 14 m/s
- speed of sound (313.85 K, 12000 kPa, Liquid): 1110.8 ± 14 m/s
- speed of sound (313.92 K, 3000 kPa, Liquid): 1037.2 ± 14 m/s
- speed of sound (313.96 K, 6000 kPa, Liquid): 1065.2 ± 14 m/s
- speed of sound (323.56 K, 100 kPa, Liquid): 978.2 ± 13 m/s
- speed of sound (323.61 K, 3000 kPa, Liquid): 999.1 ± 13 m/s
- speed of sound (323.65 K, 6000 kPa, Liquid): 1027.4 ± 13 m/s
- speed of sound (323.67 K, 10000 kPa, Liquid): 1060.4 ± 14 m/s
- speed of sound (323.71 K, 12000 kPa, Liquid): 1075.4 ± 14 m/s
- speed of sound (333.4 K, 12000 kPa, Liquid): 1041.9 ± 14 m/s
- speed of sound (333.42 K, 100 kPa, Liquid): 938.5 ± 12 m/s
- speed of sound (333.46 K, 10000 kPa, Liquid): 1028 ± 13 m/s
- speed of sound (333.48 K, 3000 kPa, Liquid): 968 ± 13 m/s
- speed of sound (333.5 K, 6000 kPa, Liquid): 996 ± 13 m/s
- speed of sound (342.88 K, 100 kPa, Liquid): 898 ± 12 m/s
- speed of sound (343.07 K, 3000 kPa, Liquid): 927.9 ± 12 m/s
- speed of sound (343.16 K, 6000 kPa, Liquid): 954.8 ± 12 m/s
- speed of sound (343.21 K, 12000 kPa, Liquid): 1008.5 ± 13 m/s
- speed of sound (343.22 K, 10000 kPa, Liquid): 990.3 ± 13 m/s
- speed of sound (352.86 K, 100 kPa, Liquid): 858.9 ± 11 m/s
- speed of sound (352.89 K, 3000 kPa, Liquid): 891.7 ± 12 m/s
- speed of sound (352.94 K, 6000 kPa, Liquid): 921.1 ± 12 m/s
- speed of sound (353.01 K, 10000 kPa, Liquid): 961.7 ± 12 m/s
- speed of sound (353.04 K, 12000 kPa, Liquid): 975.5 ± 13 m/s
- speed of sound (363.39 K, 3000 kPa, Liquid): 852.2 ± 11 m/s
- speed of sound (363.49 K, 6000 kPa, Liquid): 883.5 ± 12 m/s
- speed of sound (363.54 K, 10000 kPa, Liquid): 925.7 ± 12 m/s
- speed of sound (363.55 K, 100 kPa, Liquid): 821.9 ± 11 m/s
- speed of sound (363.58 K, 12000 kPa, Liquid): 943.8 ± 12 m/s
- speed of sound (373.04 K, 3000 kPa, Liquid): 821.1 ± 11 m/s
- speed of sound (373.27 K, 6000 kPa, Liquid): 843.9 ± 11 m/s
- speed of sound (373.41 K, 10000 kPa, Liquid): 888.2 ± 12 m/s
- speed of sound (373.49 K, 12000 kPa, Liquid): 908.6 ± 12 m/s
- speed of sound (383.18 K, 3000 kPa, Liquid): 783.2 ± 10 m/s
- speed of sound (383.8 K, 6000 kPa, Liquid): 813.8 ± 11 m/s
- speed of sound (384.11 K, 10000 kPa, Liquid): 855.6 ± 11 m/s
- speed of sound (384.26 K, 12000 kPa, Liquid): 876.5 ± 11 m/s
- speed of sound (393.83 K, 3000 kPa, Liquid): 742.3 ± 9.7 m/s
- speed of sound (394 K, 6000 kPa, Liquid): 782.2 ± 10 m/s
- speed of sound (394.15 K, 10000 kPa, Liquid): 825.8 ± 11 m/s
- speed of sound (394.19 K, 12000 kPa, Liquid): 848.1 ± 11 m/s
- speed of sound (402.16 K, 3000 kPa, Liquid): 716.5 ± 9.4 m/s
- speed of sound (402.48 K, 6000 kPa, Liquid): 750.9 ± 9.8 m/s
- speed of sound (402.64 K, 10000 kPa, Liquid): 800.2 ± 10 m/s
- speed of sound (402.78 K, 12000 kPa, Liquid): 819.5 ± 11 m/s
- speed of sound (412.57 K, 3000 kPa, Liquid): 677.6 ± 8.9 m/s
- speed of sound (412.84 K, 6000 kPa, Liquid): 719.3 ± 9.4 m/s
- speed of sound (413.07 K, 10000 kPa, Liquid): 766.7 ± 10 m/s
- speed of sound (413.22 K, 12000 kPa, Liquid): 791.3 ± 10 m/s
- speed of sound (423.95 K, 3000 kPa, Liquid): 636.8 ± 8.4 m/s
- speed of sound (424.32 K, 6000 kPa, Liquid): 678.1 ± 8.9 m/s
- speed of sound (424.49 K, 10000 kPa, Liquid): 732.1 ± 9.6 m/s
- speed of sound (424.59 K, 12000 kPa, Liquid): 756.7 ± 9.9 m/s
- speed of sound (434.51 K, 3000 kPa, Liquid): 602.6 ± 7.9 m/s
- speed of sound (434.94 K, 6000 kPa, Liquid): 647.4 ± 8.5 m/s
- speed of sound (435.26 K, 10000 kPa, Liquid): 701 ± 9.2 m/s
- speed of sound (435.36 K, 12000 kPa, Liquid): 726.5 ± 9.5 m/s
- speed of sound (443.7 K, 3000 kPa, Liquid): 569.7 ± 7.5 m/s
- speed of sound (444 K, 6000 kPa, Liquid): 619.6 ± 8.2 m/s
- speed of sound (444.22 K, 10000 kPa, Liquid): 677.1 ± 8.9 m/s
- speed of sound (444.36 K, 12000 kPa, Liquid): 700.3 ± 9.2 m/s
- speed of sound (452.94 K, 3000 kPa, Liquid): 538.4 ± 7.1 m/s
- speed of sound (453.22 K, 6000 kPa, Liquid): 588.3 ± 7.8 m/s
- speed of sound (454.37 K, 10000 kPa, Liquid): 648.8 ± 8.5 m/s
- speed of sound (455.24 K, 12000 kPa, Liquid): 671.1 ± 8.8 m/s
- speed of sound (462.54 K, 3000 kPa, Liquid): 502.1 ± 6.7 m/s
- speed of sound (463.04 K, 6000 kPa, Liquid): 558.9 ± 7.4 m/s
- speed of sound (463.43 K, 10000 kPa, Liquid): 622.7 ± 8.2 m/s
- speed of sound (463.72 K, 12000 kPa, Liquid): 651.6 ± 8.6 m/s
- speed of sound (472.45 K, 3000 kPa, Liquid): 464.2 ± 6.3 m/s
- speed of sound (472.86 K, 6000 kPa, Liquid): 530.7 ± 7.1 m/s
- speed of sound (473.22 K, 10000 kPa, Liquid): 596.3 ± 7.9 m/s
- speed of sound (473.48 K, 12000 kPa, Liquid): 627.7 ± 8.3 m/s
- speed of sound (483.15 K, 3000 kPa, Liquid): 423.5 ± 5.9 m/s
- speed of sound (483.63 K, 6000 kPa, Liquid): 496.7 ± 6.7 m/s
- speed of sound (484.05 K, 10000 kPa, Liquid): 569.9 ± 7.5 m/s
- speed of sound (484.3 K, 12000 kPa, Liquid): 598.4 ± 7.9 m/s
- speed of sound (493.12 K, 3000 kPa, Liquid): 386.4 ± 5.5 m/s
- speed of sound (493.56 K, 6000 kPa, Liquid): 464.9 ± 6.3 m/s
- speed of sound (494.09 K, 10000 kPa, Liquid): 542.2 ± 7.2 m/s
- speed of sound (494.42 K, 12000 kPa, Liquid): 576.5 ± 7.6 m/s
- speed of sound (502.8 K, 3000 kPa, Liquid): 350.1 ± 5.1 m/s
- speed of sound (503.17 K, 6000 kPa, Liquid): 435.4 ± 6 m/s
- speed of sound (503.79 K, 10000 kPa, Liquid): 516.1 ± 6.9 m/s
- speed of sound (504.09 K, 12000 kPa, Liquid): 550.4 ± 7.3 m/s
- speed of sound (512.41 K, 3000 kPa, Liquid): 311.4 ± 4.8 m/s
- speed of sound (513.04 K, 6000 kPa, Liquid): 404 ± 5.7 m/s
- speed of sound (513.78 K, 10000 kPa, Liquid): 491.8 ± 6.6 m/s
- speed of sound (514.01 K, 12000 kPa, Liquid): 526.6 ± 7 m/s
- speed of sound (523.31 K, 3000 kPa, Liquid): 264.5 ± 4.5 m/s
- speed of sound (523.97 K, 6000 kPa, Liquid): 371.4 ± 5.4 m/s
- speed of sound (524.59 K, 10000 kPa, Liquid): 463 ± 6.3 m/s
- speed of sound (524.7 K, 12000 kPa, Liquid): 501.3 ± 6.7 m/s
- speed of sound (543.28 K, 3000 kPa, Fluid (supercritical or subcritical phases)): 159 ± 6.4 m/s
- speed of sound (543.47 K, 4000 kPa, Fluid (supercritical or subcritical phases)): 233.1 ± 5.8 m/s
- speed of sound (543.63 K, 5000 kPa, Fluid (supercritical or subcritical phases)): 282.2 ± 4.9 m/s
